Measurements reported in PMC10026764, “Overcoming the imatinib-resistant BCR-ABL mutants with new ureidobenzothiazole chemotypes endowed with potent and broad-spectrum anticancer activity” (Journal of Enzyme Inhibition and Medicinal Chemistry, 2023).
Several values for one entry are separate records, joined by “and”; a condition that tells them apart may be missing. Equal values may be shown once. Read-outs that look alike come from different tables or passages of the source.

Experiments:
[1] = biological target: T1, BCR-ABL^WT (Homo sapiens, UniProt P00519); design: method as in PMID 25881828; settings: reported values ref 19; cited from earlier work
[2] = biological target: T2, BCR-ABL^T315I (Homo sapiens, UniProt P00519, T315I); settings: reported values ref 19; cited from earlier work
T2 construct: purchased Reaction Biology Corporation (RBC, Malvern, PA, USA)

[3] = tested on: K-562 cell line; design: method as in PMID 25881828; settings: K-562, single dose 10 μM; cited from earlier work
[4] = biological target: T1, BCR-ABL^WT; assay: In vitro kinase screening (RBC), BCR-ABL^WT; type: biochemical; settings: 10-dose IC50 mode, 3-fold serial dilution, 10 μM ATP
[5] = biological target: T2, BCR-ABL^T315I; assay: In vitro kinase screening (RBC), BCR-ABL^T315I; type: biochemical; settings: 10-dose IC50 mode, 3-fold serial dilution, 10 μM ATP
[6] = biological target: DDR1 (Homo sapiens, UniProt Q08345); assay: Kinase selectivity test against DDR1; type: biochemical
Description: On the other hand, to gain certain insights about the kinase selectivity of this array of ureidobenzothiazoles, compounds 2a and 2b were tested against DDR1 (Figure 4). Discoidin domain receptors (DDR1/2) are transmembrane receptor tyrosine kinases (RTKs), activated by fibrillar collagens. DDR1/2 and BCR-ABL share almost 61% sequence similarities in their ATP binding domains. […] This observation points out the merit of these ureidobenzothiazoles over the known BCR-ABL inhibitors in achieving exceptional selectivity towards BCR-ABL.

[7] = tested on: leukaemia K-562 cells; assay: MTT antiproliferative assay; settings: for GI50: Homo sapiens, K562, 72 h, read-out: GI50 K-562; for SI: selectivity index (GI50 (L132)/GI50 (K562)): MTT, 72 h
[8] = tested on: L132 normal cell; assay: MTT antiproliferative assay; settings: Homo sapiens, L132, 72 h, read-out: GI50 L132
[9] = tested on: NCI-60 cell lines; assay: NCI-60 single dose SRB assay (panel); type: cell-based; settings: single dose 10 μM
Text: To gain further insights about the anticancer profile of this new ureidobenzothiazole chemotypes, the structures of all final compounds were submitted to the National Cancer Institute (NCI, Developmental Therapeutics Program, Bethesda, MD, USA). Based on NCI selection criteria, compounds 2b (AK-HW-90), 2e, and 2f were chosen for broad screening against a library of 60 human cancer cell lines, representing nine types of blood and solid cancers. Employing the highly sensitive sulforhodamine B (SRB) assay, compounds 2b, 2e, and 2f were tested initially at a single dose of 10 μM, and their detailed activities on the percentages growth of the NCI-60 cell lines were illustrated in Figure 5, and compared with that observed for the lead benzothiazole AKE-5l.

Chain of DDR1 (Q08345 19-913, species assumed): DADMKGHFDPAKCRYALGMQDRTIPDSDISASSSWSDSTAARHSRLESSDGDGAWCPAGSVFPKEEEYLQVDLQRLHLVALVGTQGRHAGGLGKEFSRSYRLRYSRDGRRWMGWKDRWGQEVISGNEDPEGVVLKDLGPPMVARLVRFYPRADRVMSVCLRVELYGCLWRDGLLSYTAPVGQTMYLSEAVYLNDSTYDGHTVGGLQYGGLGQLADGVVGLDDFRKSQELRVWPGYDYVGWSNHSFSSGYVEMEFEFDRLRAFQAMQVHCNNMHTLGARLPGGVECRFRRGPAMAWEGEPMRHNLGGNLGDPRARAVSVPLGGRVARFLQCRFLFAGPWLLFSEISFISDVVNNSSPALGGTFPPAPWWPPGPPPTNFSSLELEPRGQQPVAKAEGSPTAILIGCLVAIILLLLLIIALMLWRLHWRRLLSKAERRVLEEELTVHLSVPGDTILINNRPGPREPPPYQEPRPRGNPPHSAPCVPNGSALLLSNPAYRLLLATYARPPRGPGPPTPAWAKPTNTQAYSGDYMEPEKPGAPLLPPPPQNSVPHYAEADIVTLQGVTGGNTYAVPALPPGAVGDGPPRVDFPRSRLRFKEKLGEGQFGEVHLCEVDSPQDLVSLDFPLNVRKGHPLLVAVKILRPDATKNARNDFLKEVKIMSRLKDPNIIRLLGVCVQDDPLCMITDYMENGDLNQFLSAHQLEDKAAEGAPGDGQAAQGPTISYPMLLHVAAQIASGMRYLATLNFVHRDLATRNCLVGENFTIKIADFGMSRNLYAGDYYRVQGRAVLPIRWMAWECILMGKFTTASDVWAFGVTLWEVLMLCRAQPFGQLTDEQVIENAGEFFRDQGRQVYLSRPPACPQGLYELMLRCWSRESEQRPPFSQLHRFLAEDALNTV

Row | Compound | IC50 [4] [nM] | IC50 [5] | IC50 [6] [nM] | GI50 [7] [µM] | IC50 [1] [nM] | IC50 [2] [nM] | % growth [3] [%] | SI: selectivity index (GI50 (L132)/GI50 (K562)) [7] | GI50 [8] [µM] | number of cancer cells with cytostatic growth inhibitory activity (% growth less than 40) [9] [cancer cells]
1 | CNC(=O)c1cc(Oc2ccc3nc(NC(=O)NCCCN4CCN(C)CC4)sc3c2)ccn1 [AKE-5l] | – | – | – | – | 18.2 | 39.9 | 10.22 | – | – | –
2 | COc1ccccc1-c1ccc2nc(NC(=O)Nc3ccc(N4CCN(C)CC4)cc3)sc2c1 [Compound 2a] | 1.5 | 2 nM and 2.03 nM | 195 | 4.52 | – | – | – | 5.9 | 26.8 | –
3 | COc1ccccc1-c1ccc2nc(NC(=O)Nc3ccc(CN4CCOCC4)c(C(F)(F)F)c3)sc2c1 [Compound 2f] | 74.6 | 226 nM | – | > 10 | – | – | – | – | – | 14

The next lines start with results.

Row | IC50 [4] [nM] | IC50 [5] | IC50 [6] [nM] | GI50 [7] [µM] | Compound | IC50 [1] [nM] | IC50 [2] [nM] | % growth [3] [%] | SI: selectivity index (GI50 (L132)/GI50 (K562)) [7] | GI50 [8] [µM] | number of cancer cells with cytostatic growth inhibitory activity (% growth less than 40) [9] [cancer cells]
4 | 2.16 | 8.11 nM | – | 3.82 | COc1ccccc1-c1ccc2nc(NC(=O)Nc3ccc(N4CCOCC4)cc3)sc2c1 [Compound 2c] | – | – | – | 6.8 | 26.1 | –
5 | – | – | – | > 10 | COc1ccccc1-c1ccc2nc(NC(=O)Nc3cccc(C(F)(F)F)c3)sc2c1 [Compound 2d] | – | – | – | – | – | –
